*1 amine or outer side, *2 acyl side, *3 side chain or, on linkers, in order; H or OH if unused. Where a SMILES comes first, the peptide text is derived from it. Bridges are numbered along the chain shown (N, C = ends). [ ]: non-standard residue; d: D form. X1 = O=C(COc1ccc2[nH]cc(CCN[*:1])c2c1)[*:2]; Nle = CCCC[C@H](N)C(=O)O
Columns and labels:
[1] = system: hypothalamic slices; conditions: hypothalamic slices in vitro; cited from earlier work
[2] = target: T1, Y1R (Homo sapiens, UniProt P25929); test: FLIPR assay, Y1R; assay type: cell-based
T1 sequence (P25929 1-384): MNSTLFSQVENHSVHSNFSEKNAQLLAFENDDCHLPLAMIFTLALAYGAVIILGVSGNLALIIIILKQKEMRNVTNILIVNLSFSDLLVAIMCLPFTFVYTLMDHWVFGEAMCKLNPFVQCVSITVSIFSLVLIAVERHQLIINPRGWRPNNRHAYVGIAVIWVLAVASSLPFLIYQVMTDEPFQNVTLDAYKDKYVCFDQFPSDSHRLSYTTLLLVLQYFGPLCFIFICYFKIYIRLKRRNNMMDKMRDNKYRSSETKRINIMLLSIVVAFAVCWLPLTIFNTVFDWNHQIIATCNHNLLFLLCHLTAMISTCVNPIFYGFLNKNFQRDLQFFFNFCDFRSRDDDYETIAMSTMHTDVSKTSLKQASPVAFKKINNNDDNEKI
Protocol: (§1) Loading Buffer (Calcium-3 Assay Kit, Molecular Devices) was prepared by dissolving the contents of one vial (Express Kit) into 1000 ml Hank's Balanced Salt Solution containing 20 mM HEPES and 5 mM probenecid. Aliquots of 25 μL of diluted dye was dispensed into the cell plates and the plates are then incubated for 1 hour at 37° C.
(§2) During the incubation, test compounds were prepared at 3.5× the desired concentration in HBSS (20 mM HEPES)/0.05% BSA/1% DMSO and transferred to a 384 well plate for use on FLIPR.
(§3) After incubation, both the cell and compound plates were brought to the FLIPR and 20 μL of the diluted compounds were transferred to the cell plates by the FLIPR. During the assay, fluorescence readings were taken simultaneously from all 384 wells of the cell plate every 1.5 seconds. Five readings were taken to establish a stable baseline, and then 20 μL of sample was rapidly (30 μL/sec) and simultaneously added to each well of the cell plate. The fluorescence was continuously monitored before, during and after sample addition for a total elapsed time of 100 seconds. Responses (increase in peak fluorescence) in each well following addition was determined. The initial fluorescence reading from each well, prior to ligand stimulation, was used as a zero baseline value for the data from that well. The responses are expressed as % of maximal response of the positive control.

[3] = target: Y4R (Homo sapiens, UniProt P50391); test: FLIPR assay, Y4R; assay type: cell-based
Chain of Y4R (P50391 whole entry): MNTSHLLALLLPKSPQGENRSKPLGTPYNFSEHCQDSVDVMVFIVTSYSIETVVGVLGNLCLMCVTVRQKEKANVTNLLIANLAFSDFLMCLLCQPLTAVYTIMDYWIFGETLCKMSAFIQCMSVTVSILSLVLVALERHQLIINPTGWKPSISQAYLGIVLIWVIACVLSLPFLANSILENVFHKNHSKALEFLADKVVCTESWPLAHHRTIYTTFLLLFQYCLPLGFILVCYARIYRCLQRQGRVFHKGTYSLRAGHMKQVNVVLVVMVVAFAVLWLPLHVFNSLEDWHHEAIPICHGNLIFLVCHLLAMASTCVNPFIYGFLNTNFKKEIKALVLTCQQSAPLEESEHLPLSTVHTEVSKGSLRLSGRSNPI
Protocol: as §1, §2, §3

[4] = system: C57BL/6J male mice or DIO (diet-induced obese) male mice; test: In Vivo Reduction of Food Intake Assay; set-up: species or system mouse
Protocol: In this Example, compounds of Examples 5, 44, 73 and 74 were administered to four sets of mice in four separate experiments to measure effect on food intake. C57BL/6J male mice or DIO (diet-induced obese) male mice were used in the experiments, with eight mice per experimental group. The mice were maintained on a regular light cycle (6 AM—ON; 6 PM—OFF). The mice were fasted for 24 hours prior to testing with ad lib access to water. During the test, mice were housed one per cage.
The compounds of Examples 5 and 44 were administered intraperitoneally; and the compounds of Examples 73 and 74 were administered subcutaneously. In each Figure, cumulative and time interval food consumptions were measured in individual mice. Mean food consumption and percent change from vehicle were calculated for each time interval. Data was analyzed by using two-tailed Student t-test.

[5] = administered intraperitoneally, mice fasted 24 hours, 1, 2, 4, 6 and 24 hours after dosing
[6] = administered subcutaneously, mice fasted 24 hours, 1, 2, 4, 6, 24 hours and longer intervals

In the case of `N=C(N)NCCC[C@H](NC(=O)CC1(CC(=O)N2CCN(C3c4ccccc4NC(=O)c4ccccc43)CC2)CCCC1)C(=O)NCCn1c(=O)n(-c2ccccc2)n(-c2ccccc2)c1=O` (stereo partly shown) [BIIE0246], the NPY release [1] is listed as “increases NPY release”.

`CCCC[C@H](NC(=O)[C@@H](NC(C)=O)[C@@H](C)CC)C(=O)NCCc1c[nH]c2ccc(OCC(=O)N[C@@H](CCCNC(=N)N)C(=O)N[C@@H](Cc3c[nH]cn3)C(=O)N[C@@H](Cc3ccc(O)cc3)C(=O)N[C@H]3CCCCNC(=O)C[C@@H](C(=O)N[C@@H](CCCNC(=N)N)C(=O)N[C@@H](CCC(N)=O)C(=O)N[C@@H](CCCNC(=N)N)C(=O)N[C@@H](Cc4ccc(O)cc4)C(N)=O)NC(=O)[C@H](C(C)C)NC(=O)[C@H](CC(C)C)NC(=O)[C@H](CC(N)=O)NC3=O)cc12` [Example 53] (Ac-I[Nle][X1]RHYKNLVDRQRY-NH2; lactam 7-11) showed an EC50 [2] greater than 5 µM and an EC50 [3] greater than 5 µM.

For “Ac-Ile-Nle-Pqa-Arg-His-Tyr-Leu-Asn-Leu-Val-Thr-Arg-Gln-Arg-Tyr-NH2 [Example 44]”, the “reduction of food intake” value [4, 5] was “reduction of food intake was demonstrated”.

For “H-Ile-Lys-Pqa-Arg-His-Tyr-Leu-Asn-Leu-Val-Thr-Arg-Gln-Arg-Tyr-NH2 [Example 5]”, the “reduction of food intake” value [4, 5] was “reduction of food intake was demonstrated”.

For “PEG (10,000)-Ile-Nle-Pqa-Arg-His-Tyr-Leu-Asn-Leu-Val-Thr-Arg-Gln-Arg-Tyr-NH2 [Example 73]”, the “reduction of food intake” value [4, 6] was “reduction of food intake was demonstrated”.

With “PEG (30,000)-Ile-Nle-Pqa-Arg-His-Tyr-Leu-Asn-Leu-Val-Thr-Arg-Gln-Arg-Tyr-NH2 [Example 74]” the “reduction of food intake” value [4, 6] was “reduction of food intake was demonstrated”.

— patent US7410949B2, “Neuropeptide-2 receptor (Y-2R) agonists and uses thereof” (Hoffmann-La Roche Inc., priority 2005, dated 2008)
